Read-outs that look alike come from different tables or passages of the source.
Tests used:
[1] = mouse model; combination with cannabidiol; cited from earlier work
pharynx::SLC6A4 = assay: ScreenChip pharyngeal pumping frequency in SLC6A4 transgenic C. elegans; assay type: in vivo; settings: 10 mM serotonin, first-day adults, 20 minutes incubation; FIG. 2B
From the text: Provided herein are transgenic nematodes and methods of preparing same for expression, as well as methods for using the same drug discovery for human therapeutic targets, such as that illustrated in FIG. 1 and described in more detail herein, wherein the therapeutic target gene is first optimized for expression in a host nematode and then incorporated into the genome of the nematode. Human Solute Carrier Family 6 Member 4 (SLC6A4) is known to transport serotonin out of the synaptic space, thus terminating the action of serotonin. […] Inhibitors of SLC6A4, selective serotonin reuptake inhibitors (SSRls), are commonly used to treat major depressive disorder and anxiety but are also known to cause many unpleasant side-effects. New SSRls can be discovered using the SLC6A4 overexpressing C. elegans transgenic nematodes described in this illustrative example. As shown below, C. elegans transgenic animals overexpressing human SLC6A4 in the pharyngeal muscle show a decrease in pumping frequency when stimulated to pump by food (a mild stimulus) as compared to the wildtype. These animals can be screened to identify novel SSRls. […] Each EPG recording is two minutes in duration and the experiment is replicated in triplicate on different days. […]

STXBP1(R406H) = settings: strain containing the R406H variant exposed to trehalose; cited from earlier work
DAF-12 [2] = biological target: T1, DAF-12 (Caenorhabditis elegans, UniProt G5EFF5); assay: lin-42::GFP reporter agonist response; assay type: in vivo, C. elegans
T1 construct: endogenous in cells; host or cells: whole C. elegans animals carrying lin-42::GFP or mtl-1::GFP promoter-fusion reporters
T1 sequence (G5EFF5 1-753): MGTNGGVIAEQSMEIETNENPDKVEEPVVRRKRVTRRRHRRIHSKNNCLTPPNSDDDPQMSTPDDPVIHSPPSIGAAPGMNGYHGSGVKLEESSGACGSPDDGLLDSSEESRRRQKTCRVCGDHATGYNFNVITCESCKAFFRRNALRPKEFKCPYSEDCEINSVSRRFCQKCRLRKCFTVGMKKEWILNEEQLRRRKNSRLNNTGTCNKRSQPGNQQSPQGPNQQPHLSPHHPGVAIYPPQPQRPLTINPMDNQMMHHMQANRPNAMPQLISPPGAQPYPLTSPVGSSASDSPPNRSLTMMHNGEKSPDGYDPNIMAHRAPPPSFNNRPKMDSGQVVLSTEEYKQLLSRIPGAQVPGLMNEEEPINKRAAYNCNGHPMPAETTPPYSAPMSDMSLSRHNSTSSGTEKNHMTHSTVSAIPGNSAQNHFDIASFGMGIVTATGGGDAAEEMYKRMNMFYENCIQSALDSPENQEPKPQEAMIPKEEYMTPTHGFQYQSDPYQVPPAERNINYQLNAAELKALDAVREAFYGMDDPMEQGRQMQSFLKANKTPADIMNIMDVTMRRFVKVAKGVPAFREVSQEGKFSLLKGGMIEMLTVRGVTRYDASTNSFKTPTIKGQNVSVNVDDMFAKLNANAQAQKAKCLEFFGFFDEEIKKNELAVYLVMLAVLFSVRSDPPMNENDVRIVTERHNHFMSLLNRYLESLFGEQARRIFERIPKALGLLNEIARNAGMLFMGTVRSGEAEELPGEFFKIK
From the text: (§1) Chimeric proteins made with the daf-12 nuclear hormone receptor (NHR) can be used for discovery of agonist and antagonist of human NHRs and detect ligands of human NHRs. In C. elegans, the daf-12 protein activity is a key regulator of development. When daf-12 is activated by dafachronic acid under normal growth conditions, animals will proceed to their reproductive life stage. However, when animals face unfavorable conditions, dafachronic acid is not produced and the dauer program is activated leading animals into a stress-resistant arrested state. The unfavorable conditions can be mimicked by treatment with a DAF-12 antagonist, dafadine. Dafadine treatment overcomes the growth condition signal and animals enter the arrested state. Reporter lines can be used to monitor daf-12 chimera activity. In order to create reporter lines for agonist and antagonist discovery, the transcriptional response to treatment with dafachronic acid or dafadine was determined. Dauer animals were treated with 500 nM dafachronic acid and harvested for RNA preparation after four hours of exposure. RNA samples were processed and sent for RNA sequence analysis. […]
(§2) In this illustrative example, animals in the first larval stage were treated with 100uM dafadine for four hours and harvested for RNA preparation and analysis. Two reporter lines were identified by observation of fluorescence after drug treatment. […]

C. elegans = assay: phenotypic assay (% adult survival); assay type: in vivo
DAF-12 [3] = biological target: T1, DAF-12; assay: mtl-1::GFP reporter antagonist response; assay type: in vivo, C. elegans
From the text: as §1, §2

Compound: NC(=O)N1c2ccccc2C=Cc2ccccc21 [carbamazepine]
- interaction with CBD [1]: antagonize

Compound: CC[C@@H](C(N)=O)N1CCCC1=O [levetiracetam]
- interaction with CBD [1]: acts synergistically

Compound: NCCc1c[nH]c2ccc(O)cc12 [serotonin, 5-Hydroxytryptamine]
- rate of pharyngeal pumping in SLC6A4 line (pharynx::SLC6A4): restored

Compound: OC[C@H]1O[C@H](O[C@H]2O[C@H](CO)[C@@H](O)[C@H](O)[C@H]2O)[C@H](O)[C@@H](O)[C@@H]1O [trehalose]
- levels of aldicarb-induced paralysis (STXBP1(R406H)): increase to wild-type levels

Compound: dafachronic acid
- sensitivity of reporter versus phenotypic assay (DAF-12 [2]; lin-42::GFP reporter vs phenotype): at least 40 x
- EC50 (DAF-12 [2]; titrated with dafachronic acid, FIG. 3D): ~0.49 nM
- EC50 (C. elegans; dafachronic acid, FIG. 3E, read-out: EC50, animal's phenotypic response): 17 nM

Compound: dafadine
- EC50 (C. elegans; dafadine, read-out: EC50, phenotypic assay): 48000 nM
- sensitivity of reporter versus phenotypic assay (DAF-12 [3]; mtl-1::GFP reporter vs phenotypic assay): 9 x
- EC50 (DAF-12 [3]; titrated with dafadine, FIG. 3C): 5200 nM
